# Experimental data reported in patent US5969174A, “Competitive inhibitors of glyoxalase I and method of generating such competitive inhibitors inside tumor cells” (priority 1998, dated 1999).
# “Also recorded” adds a separate entry of the source. Where two headings read alike, the source gives them in different places.
# Columns and labels:
# [1] = Acyl-interchange reaction with glutathione in a cell-free system; format: physicochemical; conditions: for k2, second order rate constant for acyl-interchange with glutathione: 50 mM potassium phosphate, pH 7.5, 5% ethanol, 25° C.
# Procedure: In principle, an acyl-interchange reaction might serve as the basis of an improved prodrug strategy, provided that the acylating reagent diffuses rapidly across cell membranes and then reacts rapidly with intracellular glutathione to give the enediol analog. Three N-hydroxycarbamate thioethyl esters (2(a-c)) and the corresponding sulfoxides (3(a-c)) were prepared (FIG. 7) and their rates of acyl-interchange with glutathione in a cell free system evaluated (Table II). Sulfoxidation of N,N-di-n-propylcarbamate thioalkyl esters activates these species for acyl-interchange with glutathione. […] The N--OH function appears to inductively activate the sulfoxides for acyl-interchange, as the rate constant for 3a exceeds that of the corresponding N--CH3 derivative 3c by 13-fold. The products of the interchange reactions were confirmed as the corresponding enediol analogs, on the basis that their UV spectra and their migratory properties on a reverse-phase C18 column were identical with those of authentic samples of enediol analog.
# Second order rate constants for the
# acyl-interchange reactions between glutathione and the list thioesters
# CH3 CH2 XC(O)N(Y)Z + GSG ---(k2)--> GSC(O)B(Y)Z +
# Conditions: Potassium phosphate buffer (50 mM), pH 7.5, 5% ethanol, […]
# human erythrocyte GlxI = conditions: cited from earlier work
# splenic lymphocytes = test: Toxicity toward nonproliferating splenic lymphocytes; format: cell-based
# Text: Conditions: See Table 1. Error bars represent standard deviations for triplicate determinations. Different symbols correspond to experiments carried out on different days.
# This is illustrated for 2(Et)2 and S-p-bromobenzylglutathionediethyl ester by the dose-response curves of FIG. 3. […] Therefore, tumor cells might not be able to detoxify the inhibitors as rapidly as normal cells. In order to determine whether this could be a factor in the present study, the glyoxalase activities in both L1210 cells and splenic lymphocytes were determined. Indeed, while the GlxI activities in the two cell lines are nearly equal, the GlxII activity in L1210 cells is about 10-fold lower than that in splenic lymphocytes. The activities of GlxI and GlxII in L1210 cells were respectively 0.31±0.03 U/mg and 0.02±0.003 U/mg, while the activities in splenic lymphocytes were respectively 0.36±0.03U/mg and 0.20±0.03 U/mg.
# L1210 cells [2] = test: Growth inhibition / cytotoxicity, murine leukemia L1210 cells in culture; format: cell-based; conditions: for IC50: L1210, 48 h; for greater potency of sulfoxide versus diethyl ester: L1210 cells
# [3] = test system: B16 melanotic melanoma cells; test: Growth inhibition, B16 melanotic melanoma cells in culture; format: cell-based, murine
# Procedure: As a consequence, they are the strongest competitive inhibitors of human GlxI yet described, Table 1. […] With both cell lines there was some correlation between the Ki values of the enediol analogs and the IC50 values of the corresponding diethyl esters.
# ^d Sp-bromobenzylglutathione diethyl ester. Cells were incubated for
# 48 h in RPMI 1640/10% fetal calf serum (37° C.) in the absence and
# in the presence of enzyme inhibitor. After the initial addition of
# inhibitor at time zero, fresh inhibitor was added every 12 h in order to
# compensate partially for the loss of inhibitor due to spontaneous
# hydrolytic deethylation in the growth medium.
# [4] = Stability in mouse serum/plasma; format: in vitro ADME
# Stability in human serum = format: in vitro ADME
# Procedure: To 0.5 ml portions of either human serum or mouse serum, at 37° C., was added compound 2(Et)2 to an initial concentration of approximately 0.15 mM. As a function of time, 0.1 ml aliquots of the incubation mixture were transferred to separate microfuge tubes. The samples were immediately deproteinized by the addition of 70% ethanol (0.9 ml). After incubation for 30 minutes at 37° C., the protein precipitate was sedimented by centrifugation at […]. The supernatants were then fractionated by reverse-phase HPLC, as described above, and the integrated intensities of the peaks corresponding to 2(Et)2 determined. The rate constants for deethylation were calculated from the first-order rate of loss of 2(Et)2 as a function of time.
# To identify a murine model suitable for in vivo testing of the GlxI inhibitors, the stability of 2(Et)2 was evaluated in human serum and in serum samples obtained from different strains of tumor-bearing mice. In human serum, 2(Et)2 undergoes slow first-order hydrolysis to a mixture of diacid and monoethyl esters, as monitored by reverse-phase HPLC (FIG. 6). For serum samples obtained from four different individuals, T1/2 =9.1±5.3 hours (n=4). […]
# [5] = n-octanol/water partition coefficient
# L1210 cells [6] = test: Cell permeability / intracellular appearance of enediol analog in L1210 cells; format: in vitro ADME, murine
# Procedure: In order to understand the mechanism of intracellular delivery of the enediol analogs, suspensions of L1210 cells were separately incubated with the diacid 2 and with the corresponding diethyl ester 2(Et)2. The rate of appearance of these species in the intracellular fraction was then monitored as a function of time by reverse-phase HPLC (FIG. 4). […] After 90 minutes, the concentration of 2 decreased, possibly due to a combination of factors including (a) 10-20% cell death over the course of the experiment, (b) hydrolytic deethylation of extracellular 2(Et)2, and (c) GlxII-catalyzed decarbamoylation of intracellular 2.
# To suspensions of L1210 cells (~1.5(10^6 cells/ml) in RPMI 1640 medium, containing 10% heat-inactivated fetal calf serum, gentamycin (10 μg/ml) and L-glutamate, at 37° C., were added fixed concentrations of 2a. Aliquots (1 ml) were removed from the cell suspension as a function of time, overlaid onto 0.4 ml of silicone oil (SF-1250 silicone fluids, General Electric Co., Silicone Products Division, Waterford, N.Y.) contained in an eppendorf centrifuge tube and centrifuged at 11,000×g (15 min) at 25° C. The supernatant and silicone oil were decanted from the cell pellet and residual oil removed from the inside of the centrifuge tube with a cotton swab. To the pellet was added 1 ml 70% ethanol in water and the suspension sonicated for 5 minutes. The denatured protein was sedimented by centrifugation (11,000×g, 15 min) and the clear supernatant was removed. The supernatant was brought to dryness under a stream of argon, and the resulting residue was fractionated by reverse-phase HPLC (Waters μBondapak C18, 0.78(30 cm), using a mobile phase composed of methanol:water (1:1) containing 0.25% acetic acid at a flow rate of 2 ml/min. The integrated intensity of the peak corresponding S-(N-p-chlorophenyl-N-hydroxycarbamoyl) glutathione was determined at λ=260 nm. Concentrations were extrapolated from standard curves that were linear in the range 0.1 to 4.0 nmoles (r=0.997).
# L1210 cells [7] = test: as above; format: in vitro ADME, murine; remark: listed apart in the source
# HL60 cells = conditions: cited from earlier work
# tumor cells = conditions: literature (5-8); cited from earlier work
structure (smiles),measurement,setting,value
CC[S+]([O-])C(=O)N(C)O (stereo not shown) [Compound 3b],rate constant relative to thioester 2a,[1],exceed by several-fold that with the thioester 2 a
same,"k2, second order rate constant for acyl-interchange with glutathione",[1],9.83 ± 0.33 M⁻¹ s⁻¹
"CCOC(=O)CNC(=O)[C@H](CSC(=O)N(O)c1ccc(Cl)cc1)NC(=O)CC[C@H](N)C(=O)OCC [2(Et)2, S-(N-p-chlorophenyl N-hydroxycarbamoyl) glutathione diethyl ester]",Ki,"human erythrocyte GlxI; of the unethylated species with human erythrocyte GlxI (17), read-out: Ki, competitive inhibition constant",0.046 µM
same,decrease in viability of splenic lymphocytes,splenic lymphocytes; 100 μM,less than 50%
same,toxicity to splenic lymphocytes / selectivity in words,splenic lymphocytes; L1210 cells versus splenic lymphocytes,significantly more toxic to L1210 cells than to splenic lymphocytes
same,"growth inhibition / cytotoxicity in words, L1210",L1210 cells [2]; L1210 cells in vitro,inhibited the growth
same,cytotoxicity at 100 µM,"L1210 cells [2]; Mus musculus, L1210, 48 h, 100 μM, read-out: killing of L1210 cells",~100%
same,IC50,"L1210 cells [2]; Mus musculus, RPMI 1640/10% fetal calf serum, 37° C., fresh inhibitor every 12 h, mean ± SD, read-out: IC50, 50% growth inhibition, L1210",9.5 ± 3.8 µM
same,"growth inhibition / cytotoxicity in words, B16",[3]; B16 cells in vitro,inhibited the growth
same,IC50,"[3]; Mus musculus, 48 h, RPMI 1640/10% fetal calf serum, 37° C., fresh inhibitor every 12 h, mean ± SD, read-out: IC50, 50% growth inhibition, B16",28 ± 7 µM
same,half-life at 150 µM,"[4]; mouse, serum, DBA/2(C57BL/6 mice, n=5, read-out: T1/2 in serum of plasma esterase-deficient mice (converted)",3.9 ± 0.6 h
same,half-life at 150 µM,"[4]; mouse, serum, DBA/2, C57BL/6, NCr nu/nu and CD2 F1 mice, read-out: T1/2, deethylation in mouse serum",< 0.00833 h
same,first order rate constant for deethylation in human serum,"Stability in human serum; 37° C., FIG. 6",0.147 ± 0.015 h⁻¹
same,half-life at 150 µM,"Stability in human serum; human, serum, n=4, read-out: T1/2 in human serum (converted)",9.1 ± 5.3 h
same,logP,[5],0.996
same,intracellular uptake in words,L1210 cells [6]; L1210 cells,rapid increase in intracellular [2] during the first 90 min; also recorded: linear function of extracellular [2(Et)2 ] in the range 0.01 to 1.0 mM; also recorded: Only trace amounts of the monoethyl esters and diethyl ester of 2 were found in the intracellular fractions; also recorded: high intracellular concentrations of the corresponding diacid 2
same,maximum concentration of 2 inside cells versus extracellular concentration of 2(Et)2,L1210 cells [6]; exceeds extracellular,about three-fold
same,apparent first order rate constant for diffusion of diethyl ester into L1210 cells,"L1210 cells [6]; in vitro, 37° C.",0.04 min⁻¹
same,first order rate constant for appearance of 2 inside L1210 cells,L1210 cells [6]; incubated in the presence of 2(Et)2,2.2 h⁻¹
"CC[S+]([O-])C(=O)N(O)c1ccc(Cl)cc1 (stereo not drawn) [Compound 3a, S-(N-Hydroxy-N-p-chlorophenylcarbamoyl)ethyl sulfoxide]",reduction of intracellular glutathione concentration,L1210 cells [7],less than 1%
same,greater potency of sulfoxide versus diethyl ester,L1210 cells [2],10 -fold
same,greater potency of sulfoxide versus diethyl ester,L1210 cells [2]; listed as S-(N-p-chlorophenyl-N-hydroxycarbamoyl)ethylsulfoxide,about 10 -fold
same,IC50,"L1210 cells [2]; Mus musculus, fresh drug every 12 h, read-out: IC50 toward L1210 cells, sulfoxide",0.8 ± 0.5 µM
same,first order rate constant for loss of sulfoxide from serum,"[4]; DBA/2 mice, n=3",0.06 ± 0.01 min⁻¹
same,half-life,"[4]; mouse, serum, DBA/2 mice, n=3, read-out: T1/2 of sulfoxide in serum",0.217 ± 0.0333 h
same,rate constant relative to thioester 2a,[1],exceed by several-fold that with the thioester 2 a
same,"k2, second order rate constant for acyl-interchange with glutathione",[1],30.7 ± 1.2 M⁻¹ s⁻¹
same,second order rate constant for acyl-interchange reaction,"[1]; 100 mM potassium phosphate, 5% ethanol, pH 7.5, 25° C.",30.7 M⁻¹ s⁻¹
same,rate constant relative to N--CH3 derivative 3c,[1]; exceeds,13 -fold
same,apparent first order rate constant for appearance of enediol analog inside the cells on incubation with sulfoxide,L1210 cells [6],1.41±0.03 min^-1
same,intracellular uptake in words,L1210 cells [6],rapid increase in the intracellular concentration of the corresponding enediol analog
same,maximum intracellular concentration of inhibitor versus extracellular concentration of sulfoxide,L1210 cells [6],about 10 -fold
same,rate of influx of sulfoxide relative to diethyl ester 1(Et)2,L1210 cells [6],35 -fold
same,time to maximum intracellular concentration of inhibitor,L1210 cells [6],about 17 minutes
C[C@@H](O)C(=O)SC[C@H](NC(=O)CC[C@H](N)C(=O)O)C(=O)NCC(=O)O [S-D-lactoylglutathione],growth of HL60 cells,HL60 cells; literature (25),inhibits the growth of HL60 cells in culture
CC(=O)C=O [methylglyoxal],inhibition of tumor cells by exogenous methylglyoxal,tumor cells,selective inhibitory activity toward rapidly proliferating tumor cells versus nonproliferating normal cells in vitro; also recorded: inhibit the growth of tumor cells in tissue culture
N[C@@H](CCC(=O)N[C@@H](CSCc1ccc(Br)cc1)C(=O)NCC(=O)O)C(=O)O [S-p-bromobenzylglutathione],effect on human leukemia HL60 cells,HL60 cells; literature,both cytostatic and cytotoxic to these cells
"N[C@@H](CCC(=O)N[C@@H](CSC(=O)N(O)c1ccc(Cl)cc1)C(=O)NCC(=O)O)C(=O)O [Compound 2, S-(N-p-chlorophenyl N-hydroxycarbamoyl)glutathione]",Ki,"human erythrocyte GlxI; FIG. 8, read-out: Ki, tight-binding competitive inhibitor of human glyoxalase I",0.046 µM
same,logP,[5],< -2
same,intracellular uptake in words,L1210 cells [6]; L1210 cells,no significant time-dependent increase in intracellular [2]
